The supplement of paper PMC10307832

What was measured:
Experiment in all cases: relative viability (nuclei count vs DMSO), 5 days (fraction); higher = more cells survive
GSK126 + Trametinib = compound: CC[C@H](C)N1C=C(C2=C(C=C(C=C21)C3=CN=C(C=C3)N4CCNCC4)C(=O)NCC5=C(C=C(NC5=O)C)C)C [GSK126] + CC(=O)Nc1cccc(-n2c(=O)n(C3CC3)c(=O)c3c(Nc4ccc(I)cc4F)n(C)c(=O)c(C)c32)c1 [Trametinib] (partner 0.02 µM)
Method in brief: (§1)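 Lung cancer cell lines, seeded in 1536-well plates, were treated the following day by pin tool with a single drug or with five library-drug doses (not always all listed) in √10 steps on top of a fixed anchor-drug dose. Cells were fixed and nuclei stained in one step after 5 days, and nuclei were counted. Relative viability is the nuclei count for treated wells divided by that for vehicle wells, reported as medians of duplicate plates.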

GSK126 + Luminespib = compound: CC[C@H](C)N1C=C(C2=C(C=C(C=C21)C3=CN=C(C=C3)N4CCNCC4)C(=O)NCC5=C(C=C(NC5=O)C)C)C [GSK126] + CCNC(=O)c1noc(-c2cc(C(C)C)c(O)cc2O)c1-c1ccc(CN2CCOCC2)cc1 [Luminespib] (partner 0.01 µM)
Method in brief: as §1

Carboplatin + Phenformin = compound: C1CC(C1)(C(=O)O)C(=O)O.[NH2-].[NH2-].[Pt+2] [Carboplatin] + N=C(N)NC(=N)NCCc1ccccc1 [Phenformin] (partner 250 µM)
Method in brief: as §1

Carboplatin + Navitoclax = compound: C1CC(C1)(C(=O)O)C(=O)O.[NH2-].[NH2-].[Pt+2] [Carboplatin] + CC1(C)CCC(c2ccc(Cl)cc2)=C(CN2CCN(c3ccc(C(=O)NS(=O)(=O)c4ccc(N[C@H](CCN5CCOCC5)CSc5ccccc5)c(S(=O)(=O)C(F)(F)F)c4)cc3)CC2)C1 [Navitoclax] (partner 0.5 µM)
Method in brief: as §1

NCI-H1793
relative viability (GSK126 + Trametinib; first compound 0.08 µM): 0.432 | relative viability (GSK126 + Trametinib; first compound 0.253 µM): 0.423 | relative viability (GSK126 + Trametinib; first compound 0.8 µM): 0.457 | relative viability (GSK126 + Trametinib; first compound 2.53 µM): 0.384 | relative viability (GSK126 + Trametinib; first compound 8 µM): 0.338 | relative viability (GSK126 + Luminespib; first compound 0.08 µM): 0.152 | relative viability (GSK126 + Luminespib; first compound 0.253 µM): 0.177 | relative viability (GSK126 + Luminespib; first compound 0.8 µM): 0.164 | relative viability (GSK126 + Luminespib; first compound 2.53 µM): 0.258 | relative viability (GSK126 + Luminespib; first compound 8 µM): 0.152 | relative viability (Carboplatin + Phenformin; first compound 0.08 µM): 0.444 | relative viability (Carboplatin + Phenformin; first compound 0.253 µM): 0.496 | relative viability (Carboplatin + Phenformin; first compound 0.8 µM): 0.289 | relative viability (Carboplatin + Phenformin; first compound 2.53 µM): 0.35 | relative viability (Carboplatin + Phenformin; first compound 8 µM): 0.405 | relative viability (Carboplatin + Navitoclax; first compound 0.08 µM): 0.496 | relative viability (Carboplatin + Navitoclax; first compound 0.253 µM): 0.585 | relative viability (Carboplatin + Navitoclax; first compound 0.8 µM): 0.388 | relative viability (Carboplatin + Navitoclax; first compound 2.53 µM): 0.453 | relative viability (Carboplatin + Navitoclax; first compound 8 µM): 0.435

HCC-44
relative viability (GSK126 + Trametinib; first compound 0.08 µM): 1.08 | relative viability (GSK126 + Trametinib; first compound 0.253 µM): 1.04 | relative viability (GSK126 + Trametinib; first compound 0.8 µM): 1.06 | relative viability (GSK126 + Trametinib; first compound 2.53 µM): 1.03 | relative viability (GSK126 + Trametinib; first compound 8 µM): 1.06 | relative viability (GSK126 + Luminespib; first compound 0.08 µM): 1.14 | relative viability (GSK126 + Luminespib; first compound 0.253 µM): 1.1 | relative viability (GSK126 + Luminespib; first compound 0.8 µM): 1 | relative viability (GSK126 + Luminespib; first compound 2.53 µM): 1.11 | relative viability (GSK126 + Luminespib; first compound 8 µM): 1.16 | relative viability (Carboplatin + Phenformin; first compound 0.08 µM): 0.344 | relative viability (Carboplatin + Phenformin; first compound 0.253 µM): 0.191 | relative viability (Carboplatin + Phenformin; first compound 0.8 µM): 0.194 | relative viability (Carboplatin + Phenformin; first compound 2.53 µM): 0.187 | relative viability (Carboplatin + Phenformin; first compound 8 µM): 0.144 | relative viability (Carboplatin + Navitoclax; first compound 0.08 µM): 0.949 | relative viability (Carboplatin + Navitoclax; first compound 0.253 µM): 0.99 | relative viability (Carboplatin + Navitoclax; first compound 0.8 µM): 0.914 | relative viability (Carboplatin + Navitoclax; first compound 2.53 µM): 0.786 | relative viability (Carboplatin + Navitoclax; first compound 8 µM): 0.874

NCI-H3122
relative viability (GSK126 + Trametinib; first compound 0.08 µM): 0.198 | relative viability (GSK126 + Trametinib; first compound 0.253 µM): 0.186 | relative viability (GSK126 + Trametinib; first compound 0.8 µM): 0.216 | relative viability (GSK126 + Trametinib; first compound 2.53 µM): 0.22 | relative viability (GSK126 + Trametinib; first compound 8 µM): 0.245 | relative viability (GSK126 + Luminespib; first compound 0.08 µM): 0.0614 | relative viability (GSK126 + Luminespib; first compound 0.253 µM): 0.0957 | relative viability (GSK126 + Luminespib; first compound 0.8 µM): 0.0787 | relative viability (GSK126 + Luminespib; first compound 2.53 µM): 0.0846 | relative viability (GSK126 + Luminespib; first compound 8 µM): 0.103 | relative viability (Carboplatin + Phenformin; first compound 0.08 µM): 0.4 | relative viability (Carboplatin + Phenformin; first compound 0.253 µM): 0.399 | relative viability (Carboplatin + Phenformin; first compound 0.8 µM): 0.385 | relative viability (Carboplatin + Phenformin; first compound 2.53 µM): 0.37 | relative viability (Carboplatin + Phenformin; first compound 8 µM): 0.359 | relative viability (Carboplatin + Navitoclax; first compound 0.08 µM): 1.03 | relative viability (Carboplatin + Navitoclax; first compound 0.253 µM): 0.988 | relative viability (Carboplatin + Navitoclax; first compound 0.8 µM): 1.01 | relative viability (Carboplatin + Navitoclax; first compound 2.53 µM): 1.02 | relative viability (Carboplatin + Navitoclax; first compound 8 µM): 0.97

COR-L23
relative viability (GSK126 + Trametinib; first compound 0.08 µM): 0.837 | relative viability (GSK126 + Trametinib; first compound 0.253 µM): 0.563 | relative viability (GSK126 + Trametinib; first compound 0.8 µM): 0.499 | relative viability (GSK126 + Trametinib; first compound 2.53 µM): 0.557 | relative viability (GSK126 + Trametinib; first compound 8 µM): 0.737 | relative viability (GSK126 + Luminespib; first compound 0.08 µM): 0.752 | relative viability (GSK126 + Luminespib; first compound 0.253 µM): 0.702 | relative viability (GSK126 + Luminespib; first compound 0.8 µM): 0.614 | relative viability (GSK126 + Luminespib; first compound 2.53 µM): 0.637 | relative viability (GSK126 + Luminespib; first compound 8 µM): 0.608 | relative viability (Carboplatin + Phenformin; first compound 0.08 µM): 0.453 | relative viability (Carboplatin + Phenformin; first compound 0.253 µM): 0.394 | relative viability (Carboplatin + Phenformin; first compound 0.8 µM): 0.428 | relative viability (Carboplatin + Phenformin; first compound 2.53 µM): 0.353 | relative viability (Carboplatin + Phenformin; first compound 8 µM): 0.241 | relative viability (Carboplatin + Navitoclax; first compound 0.08 µM): 0.992 | relative viability (Carboplatin + Navitoclax; first compound 0.253 µM): 0.883 | relative viability (Carboplatin + Navitoclax; first compound 0.8 µM): 0.838 | relative viability (Carboplatin + Navitoclax; first compound 2.53 µM): 0.84 | relative viability (Carboplatin + Navitoclax; first compound 8 µM): 0.443

201T
relative viability (GSK126 + Trametinib; first compound 0.08 µM): 0.698 | relative viability (GSK126 + Trametinib; first compound 0.253 µM): 0.693 | relative viability (GSK126 + Trametinib; first compound 0.8 µM): 0.726 | relative viability (GSK126 + Trametinib; first compound 2.53 µM): 0.746 | relative viability (GSK126 + Trametinib; first compound 8 µM): 0.726 | relative viability (GSK126 + Luminespib; first compound 0.08 µM): 1.01 | relative viability (GSK126 + Luminespib; first compound 0.253 µM): 1.05 | relative viability (GSK126 + Luminespib; first compound 0.8 µM): 1.08 | relative viability (GSK126 + Luminespib; first compound 2.53 µM): 1.12 | relative viability (GSK126 + Luminespib; first compound 8 µM): 1.2 | relative viability (Carboplatin + Phenformin; first compound 0.08 µM): 0.482 | relative viability (Carboplatin + Phenformin; first compound 0.253 µM): 0.447 | relative viability (Carboplatin + Phenformin; first compound 0.8 µM): 0.441 | relative viability (Carboplatin + Phenformin; first compound 2.53 µM): 0.444 | relative viability (Carboplatin + Phenformin; first compound 8 µM): 0.432 | relative viability (Carboplatin + Navitoclax; first compound 0.08 µM): 1.2 | relative viability (Carboplatin + Navitoclax; first compound 0.253 µM): 1.18 | relative viability (Carboplatin + Navitoclax; first compound 0.8 µM): 1.12 | relative viability (Carboplatin + Navitoclax; first compound 2.53 µM): 1.14 | relative viability (Carboplatin + Navitoclax; first compound 8 µM): 1.18

NCI-H23
relative viability (GSK126 + Trametinib; first compound 0.08 µM): 0.434 | relative viability (GSK126 + Trametinib; first compound 0.253 µM): 0.378 | relative viability (GSK126 + Trametinib; first compound 0.8 µM): 0.407 | relative viability (GSK126 + Trametinib; first compound 2.53 µM): 0.551 | relative viability (GSK126 + Trametinib; first compound 8 µM): 0.391 | relative viability (GSK126 + Luminespib; first compound 0.08 µM): 0.224 | relative viability (GSK126 + Luminespib; first compound 0.253 µM): 0.17 | relative viability (GSK126 + Luminespib; first compound 0.8 µM): 0.257 | relative viability (GSK126 + Luminespib; first compound 2.53 µM): 0.226 | relative viability (GSK126 + Luminespib; first compound 8 µM): 0.208 | relative viability (Carboplatin + Phenformin; first compound 0.08 µM): 0.824 | relative viability (Carboplatin + Phenformin; first compound 0.253 µM): 0.753 | relative viability (Carboplatin + Phenformin; first compound 0.8 µM): 0.768 | relative viability (Carboplatin + Phenformin; first compound 2.53 µM): 0.727 | relative viability (Carboplatin + Phenformin; first compound 8 µM): 0.714 | relative viability (Carboplatin + Navitoclax; first compound 0.08 µM): 0.887 | relative viability (Carboplatin + Navitoclax; first compound 0.253 µM): 0.9 | relative viability (Carboplatin + Navitoclax; first compound 0.8 µM): 0.789 | relative viability (Carboplatin + Navitoclax; first compound 2.53 µM): 0.835 | relative viability (Carboplatin + Navitoclax; first compound 8 µM): 0.588

LCLC-103H
relative viability (GSK126 + Trametinib; first compound 0.08 µM): 0.71 | relative viability (GSK126 + Trametinib; first compound 0.253 µM): 0.708 | relative viability (GSK126 + Trametinib; first compound 0.8 µM): 0.647 | relative viability (GSK126 + Trametinib; first compound 2.53 µM): 0.64 | relative viability (GSK126 + Trametinib; first compound 8 µM): 0.725 | relative viability (GSK126 + Luminespib; first compound 0.08 µM): 1.16 | relative viability (GSK126 + Luminespib; first compound 0.253 µM): 0.931 | relative viability (GSK126 + Luminespib; first compound 0.8 µM): 0.908 | relative viability (GSK126 + Luminespib; first compound 2.53 µM): 1.01 | relative viability (GSK126 + Luminespib; first compound 8 µM): 0.994 | relative viability (Carboplatin + Phenformin; first compound 0.08 µM): 0.325 | relative viability (Carboplatin + Phenformin; first compound 0.253 µM): 0.357 | relative viability (Carboplatin + Phenformin; first compound 0.8 µM): 0.347 | relative viability (Carboplatin + Phenformin; first compound 2.53 µM): 0.32 | relative viability (Carboplatin + Phenformin; first compound 8 µM): 0.348

NCI-H2087
relative viability (GSK126 + Trametinib; first compound 0.08 µM): 0.223 | relative viability (GSK126 + Trametinib; first compound 0.253 µM): 0.211 | relative viability (GSK126 + Trametinib; first compound 0.8 µM): 0.246 | relative viability (GSK126 + Trametinib; first compound 2.53 µM): 0.2 | relative viability (GSK126 + Trametinib; first compound 8 µM): 0.2 | relative viability (GSK126 + Luminespib; first compound 0.08 µM): 0.144 | relative viability (GSK126 + Luminespib; first compound 0.253 µM): 0.134 | relative viability (GSK126 + Luminespib; first compound 0.8 µM): 0.142 | relative viability (GSK126 + Luminespib; first compound 2.53 µM): 0.165 | relative viability (GSK126 + Luminespib; first compound 8 µM): 0.185 | relative viability (Carboplatin + Phenformin; first compound 0.08 µM): 0.493 | relative viability (Carboplatin + Phenformin; first compound 0.253 µM): 0.48 | relative viability (Carboplatin + Phenformin; first compound 0.8 µM): 0.383 | relative viability (Carboplatin + Phenformin; first compound 2.53 µM): 0.424 | relative viability (Carboplatin + Phenformin; first compound 8 µM): 0.332 | relative viability (Carboplatin + Navitoclax; first compound 0.08 µM): 0.944 | relative viability (Carboplatin + Navitoclax; first compound 0.253 µM): 1.03 | relative viability (Carboplatin + Navitoclax; first compound 0.8 µM): 0.944 | relative viability (Carboplatin + Navitoclax; first compound 2.53 µM): 1.01 | relative viability (Carboplatin + Navitoclax; first compound 8 µM): 0.895
